Experimental findings from publication PMC8881573, “Inhibition of SRP-dependent protein secretion by the bacterial alarmone (p)ppGpp” (Nature Communications, 2022) are described below.

The target in assay [1] is T1, (Ec)Ffh-NG (Escherichia coli, UniProt P0AGD7).
T1 construct: purified NG domains of (Ec)Ffh, (Ec)FtsY and (Bs)Ffh; His6 (C); made in house; host or cells: E. coli BL21 (DE3)
The assay is described as follows: Isothermal titration calorimetry (ITC) of nucleotide binding. Set-up: species or system E. coli. The procedure:
(§1) Ligands and proteins (purified NG domains of (Ec)Ffh, (Ec)FtsY and (Bs)Ffh) were diluted with a buffer containing 20 mM HEPES-Na (pH 7.5), 200 mM NaCl, 20 mM MgCl2 and 20 mM KCl. The NG domains of (Ec)Ffh, (Ec)FtsY and (Bs)Ffh were titrated in the sample-cell at a nominal concentration of 25 µM each. The nucleotides GDP, GTP, ppGpp and pppGpp (Jena Bioscience, Germany) were placed in the syringe and their concentrations were predetermined by absorbance at 252 nm to saturate the protein samples during the titrations. All the measurements were performed at 25 °C with the instrument MicroCal PEAQ-ITC (©Malvern Panalytical) with a method consisting of 13 injections (first 0.4 µL, and the rest 3 µL each) and 150 s of spacing. The raw data (see source) were processed with the MicroCal PEAQ-ITC Analysis Software (©Malvern Panalytical) using the “one set of sites” models.
In general terms: Isothermal titration calorimetry measures the heat released or taken up as one component is titrated into another.

The target in assay [2] is T2, (Ec)FtsY-NG (Escherichia coli, UniProt P10121).
T2 construct: purified NG domains of (Ec)Ffh, (Ec)FtsY and (Bs)Ffh; His6 (C); made in house; host or cells: E. coli BL21 (DE3)
T2 sequence (P10121 197-497): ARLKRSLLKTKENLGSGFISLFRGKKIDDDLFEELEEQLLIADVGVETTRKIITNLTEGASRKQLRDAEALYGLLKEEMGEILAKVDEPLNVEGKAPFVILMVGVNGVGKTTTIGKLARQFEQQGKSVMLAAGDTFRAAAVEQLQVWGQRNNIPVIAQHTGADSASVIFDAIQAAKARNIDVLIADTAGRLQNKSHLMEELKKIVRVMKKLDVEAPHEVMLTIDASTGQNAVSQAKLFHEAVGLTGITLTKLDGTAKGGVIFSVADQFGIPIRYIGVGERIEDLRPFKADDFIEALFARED
The assay is described as above. Set-up: species or system E. coli. The conditions noted are these: NG domain, 25 °C, one set of sites model. On the procedure:
as §1

In assay [3] the target is T3, (Bs)Ffh-NG (Bacillus subtilis, UniProt P37105).
T3 construct: purified NG domains of (Ec)Ffh, (Ec)FtsY and (Bs)Ffh; His6 (N); made in house; host or cells: E. coli Rosetta pLysS
T3 sequence (P37105 1-297 limits assumed): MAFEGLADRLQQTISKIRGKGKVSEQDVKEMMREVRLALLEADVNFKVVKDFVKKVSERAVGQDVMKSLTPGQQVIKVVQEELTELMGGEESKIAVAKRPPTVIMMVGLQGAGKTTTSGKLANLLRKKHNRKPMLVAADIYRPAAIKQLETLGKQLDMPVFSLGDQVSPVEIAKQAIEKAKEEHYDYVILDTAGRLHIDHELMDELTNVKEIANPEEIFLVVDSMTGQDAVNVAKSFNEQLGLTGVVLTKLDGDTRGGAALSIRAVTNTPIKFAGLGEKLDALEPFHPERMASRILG
The description is as above. Set-up: species or system B. subtilis. The conditions noted are these: NG domain, 25 °C, one set of sites model. The procedure:
as §1

The target of assay [4] is T1, (Ec)Ffh-NG. The assay is described as follows: Microscale thermophoresis (MST) ligand binding. Set-up: species or system E. coli. The following applies: NG domain labeled with NT 647, 21 °C. The procedure: (§2) Ligand binding assays with purified NG domains of (Ec)Ffh, (Ec)FtsY and (Bs)Ffh proteins were carried out by microscale thermophoresis (MST)[80]. All experiments were performed on a Monolith NT.115 (NanoTemper Technologies GmbH, Munich, Germany; software: NanoTemper Control Version 2.0.2.29) at 21 °C (red LED power was set to 50–100% and infrared laser power to 75%). After labeling of primary amines within (Ec)Ffh, (Ec)FtsY, and (Bs)Ffh (50 µM each) with the dye NT 647 (according to the manufacturers protocol), the proteins were re-buffered in SEC buffer containing 20 mM HEPES-Na, 20 mM KCl, 20 mM MgCl2, 200 mM NaCl (final pH 7.5), 10 mg ml^−1 BSA and 0.007% Tween. Two-hundred nanomolar of (Ec)Ffh, (Ec)FtsY, and (Bs)Ffh were titrated with GDP, GTP, ppGpp, and pppGpp starting from a concentration ranging between 0.75 and 3 mM, respectively. At least six independent MST experiments per ligand and protein were recorded at 680 nm and analyzed using NanoTemper Analysis version 1.5.37 and 1.2.009, and Origin8G software suits.
On the technique in general: Microscale thermophoresis detects binding through changes in fluorescence in a small temperature gradient.

Assay [5] deals with T2, (Ec)FtsY-NG. The assay is described as follows: Microscale thermophoresis (MST) ligand binding. Set-up: species or system E. coli. The following applies: NG domain labeled with NT 647, 21 °C. The procedure: as §2
Assay [6] deals with T3, (Bs)Ffh-NG. Put plainly: Microscale thermophoresis (MST) ligand binding. Set-up: species or system B. subtilis. The conditions noted are these: NG domain labeled with NT 647, 21 °C. The procedure:
as §2

Several values for one entry are separate records, joined by “and”; a condition that tells them apart may be missing. Identical values can stand only once.

T1 sequence (P0AGD7 1-296): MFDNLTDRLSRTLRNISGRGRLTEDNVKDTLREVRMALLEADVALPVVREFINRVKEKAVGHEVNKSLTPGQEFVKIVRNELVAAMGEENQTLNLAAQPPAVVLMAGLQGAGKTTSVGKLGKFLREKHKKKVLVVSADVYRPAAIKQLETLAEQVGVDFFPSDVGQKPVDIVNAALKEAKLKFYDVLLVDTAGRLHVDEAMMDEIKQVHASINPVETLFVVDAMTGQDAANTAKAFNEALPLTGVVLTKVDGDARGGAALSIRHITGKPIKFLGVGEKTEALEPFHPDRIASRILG

As for `Nc1nc2c(ncn2[C@@H]2O[C@H](COP(=O)(O)OP(=O)(O)O)[C@@H](O)[C@H]2O)c(=O)[nH]1` [GDP], the Kd at (Ec)Ffh-NG [1] is 2.2 ± 0.6 µM; on (Ec)FtsY-NG [2], 9.8 ± 1.1 µM; on (Bs)Ffh-NG [3] it was 1.2 ± 0.7 µM; at (Ec)Ffh-NG [4] it was 7.9 µM and 7.94 µM; on (Ec)FtsY-NG [5] (read-out: (Ec)FtsY KD MST) it was 9.6 µM and 9.63 µM; on (Bs)Ffh-NG [6], 9.23 ± 0.99 µM.
In the case of `Nc1nc2c(ncn2[C@@H]2O[C@H](COP(=O)(O)OP(=O)(O)OP(=O)(O)O)[C@@H](O)[C@H]2O)c(=O)[nH]1` [GTP], the Kd at (Ec)Ffh-NG [1] is 0.7 ± 0.5 µM; on (Bs)Ffh-NG [3], 0.6 ± 0.5 µM; on (Ec)Ffh-NG [4] it was 62.3 µM; at (Ec)FtsY-NG [5] ((Ec)FtsY KD MST), 63.8 µM; at (Bs)Ffh-NG [6], 30.3 µM.

As a reminder, the Kd is the concentration at which binding is half-saturated.
